In patent US5114958A, “1,2,4-oxadiazole and 1,2,4-thiadiazole derivatives of fenamates as antiinflammatory agents” (Warner-Lambert Company, priority 1991, dated 1992):
Read-outs that look alike come from different tables or passages of the source.

Key:
5-lipoxygenase = molecular target: T1, 5-lipoxygenase (Rattus norvegicus, UniProt P12527); assay: ARBL whole cell 5-lipoxygenase assay (LTB4 formation in RBL-1 cells, A23187-stimulated); type: cell-based; conditions: RBL-1 whole cells; for IC50: inhibition of LTB4 formation
T1 construct: host or cells: RBL-1
T1 sequence (P12527 1-673): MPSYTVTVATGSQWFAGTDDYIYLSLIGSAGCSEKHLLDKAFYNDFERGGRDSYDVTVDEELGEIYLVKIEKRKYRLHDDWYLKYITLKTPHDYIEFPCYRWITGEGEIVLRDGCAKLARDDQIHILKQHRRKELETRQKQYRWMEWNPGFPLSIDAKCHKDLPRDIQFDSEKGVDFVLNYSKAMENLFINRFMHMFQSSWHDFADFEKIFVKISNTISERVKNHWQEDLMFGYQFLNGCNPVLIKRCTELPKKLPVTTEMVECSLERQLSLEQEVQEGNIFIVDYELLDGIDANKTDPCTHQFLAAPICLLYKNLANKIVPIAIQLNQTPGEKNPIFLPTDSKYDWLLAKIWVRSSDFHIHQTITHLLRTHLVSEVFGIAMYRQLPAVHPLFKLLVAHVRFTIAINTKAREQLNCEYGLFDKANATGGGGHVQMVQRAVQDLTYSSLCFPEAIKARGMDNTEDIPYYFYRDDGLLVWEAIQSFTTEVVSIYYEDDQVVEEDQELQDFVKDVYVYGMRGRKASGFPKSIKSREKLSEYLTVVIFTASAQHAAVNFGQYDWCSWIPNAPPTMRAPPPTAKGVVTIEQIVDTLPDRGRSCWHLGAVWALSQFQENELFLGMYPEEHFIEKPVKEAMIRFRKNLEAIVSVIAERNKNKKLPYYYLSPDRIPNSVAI
Method: (§1) ARBL/ARBC Whole cell 5-lipoxygenase and Cyclooxygenase Aasays
(§2) The rat basophilic leukemia cell line (RBL-1) was obtained from the American Type Culture Collection (Rockville, Md.).
(§3) Radioimmunoassay (RIA) kits of LTB4 and PGF2α were obtained from Amersham (Arlington Heights, Ill.) and Seragen (Boston, Mass.), respectively.
(§4) RBL-1 cells are grown in suspension culture in Eagle's minimum essential medium supplemented with 12% fetal bovine serum at 37° C. in an incubator supplied with air-5% carbon dioxide. Cells are harvested by centrifugation. They are washed with cold phosphate buffered saline pH 7.4 (PBS; NaCl, 7.1 g; Na2 HPO4, 1.15 g; KH2 PO4, 0.2 g; and KCl, 0.2 g/L). Cells are finally suspended in PBS containing 1.0 mM calcium at a density of 2×10^6 cells/mL. Cells are incubated with and without test agent (in DMSO) (1% DMSO is without effect on arachidonic acid metabolism) for 10 minutes at room temperature. Calcium ionophore A23187 (5 μM) is added and cells are incubated for 7 minutes at 37° C. The reaction is stopped by chilling the tubes on ice for 10 minutes. Cells are separated by centrifugation and the supernatant is stored at -20° C. Aliquots (100 μL) are analyzed for LTB4 and PGF2α using radioimmunoassay kits as provided by the supplier.
(§5) Table 1 contains biochemical data obtained from this whole cell assay as IC5 s which are calculated as the amount of test compound causing 50% inhibition of LTB4 or PGF2α formation and the results of the CFE-2 assay.

Cyclooxygenase = molecular target: T2, Cyclooxygenase (Rattus norvegicus, UniProt Q63921); assay: ARBC whole cell cyclooxygenase assay (PGF2α formation in RBL-1 cells, A23187-stimulated); type: cell-based; conditions: RBL-1 whole cells; for IC50: inhibition of PGF2α formation; for inhibition at 10 µM: read-out: ARBC % inhibition of PGF2α at 10 μM (class symbol)
T2 construct: host or cells: RBL-1
T2 sequence (Q63921 27-602): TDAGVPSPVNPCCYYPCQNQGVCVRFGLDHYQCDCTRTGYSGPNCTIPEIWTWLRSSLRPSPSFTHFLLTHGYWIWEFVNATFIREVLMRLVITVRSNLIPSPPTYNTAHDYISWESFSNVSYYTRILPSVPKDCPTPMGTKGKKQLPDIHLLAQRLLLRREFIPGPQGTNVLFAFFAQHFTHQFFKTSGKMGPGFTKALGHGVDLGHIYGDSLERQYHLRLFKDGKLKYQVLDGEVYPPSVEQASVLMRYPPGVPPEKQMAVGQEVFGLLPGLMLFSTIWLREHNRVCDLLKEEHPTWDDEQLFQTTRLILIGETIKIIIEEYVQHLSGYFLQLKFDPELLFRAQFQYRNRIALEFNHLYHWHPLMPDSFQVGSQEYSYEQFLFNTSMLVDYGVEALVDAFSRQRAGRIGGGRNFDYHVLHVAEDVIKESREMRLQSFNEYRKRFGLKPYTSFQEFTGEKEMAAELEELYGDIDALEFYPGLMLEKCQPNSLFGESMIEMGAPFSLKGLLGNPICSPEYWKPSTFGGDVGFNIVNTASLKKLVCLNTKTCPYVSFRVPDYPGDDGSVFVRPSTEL
Method: as §1, §2, §3, §4, §5

[1] = Carrageenan-Induced Rat Foot Paw Edema-2 (CFE-2) Assay; type: in vivo; conditions: dosed 1 hour before carrageenan, edema measured 5 hours after carrageenan
Method: Carrageenan-Induced Rat Foot Paw Edema-2 (CFE-2) Assay:Protocol
Carrageenan solution (1% w/v) is prepared by dissolving 100 mg carrageenan (Marine Colloidal Div., Springfield, N.J.) in 10 mL of sterile saline (0.9%) solution (Travenol). The solution is vortexed for 30 to 45 minutes. Animals are dosed with compound 1 hour before carrageenan challenge. Foot paw edema is induced by injecting 0.10 mL of the 1% carrageenan subcutaneously into the plantar portion of the right hind paw of each rat under light anesthesia. Initial foot paw volume is measured immediately following carrageenan challenge using mercury plethysmography (Buxco Electronics). Edema is measured 5 hours after carrageenan. The difference between the 5-hour and the initial paw volume is expressed as delta edema. The delta edema for each test group of animals is used to calculate the percent inhibition of edema achieved by the compound at the test dose compared with the vehicle control group. The ID40 (the dose at which swelling is inhibited by 40%) is calculated by probit analysis for the dose at which 40% inhibition occurs.
as §5

Row | IC50 (5-lipoxygenase) | IC50 (Cyclooxygenase) | inhibition at 10 µM (5-lipoxygenase; read-out: ARBL % inhibition of LTB4 at 10 μM) | inhibition at 10 µM (Cyclooxygenase) | inhibition at 10 µM (5-lipoxygenase; read-out: ARBL % inhibition of LTB4 at 10 μM (class symbol)) | SMILES | CFE Percent inhibition at 30 mg/kg [1]
1 | 2.3 µM | 13 nM | – | – | – | Cc1ccc(Cl)c(Nc2ccccc2-c2noc(=O)[nH]2)c1Cl [Example 1, 3-[2-[(2,6-dichloro-3-methylphenyl)amino]phenyl]-1,2,4-oxadiazol-5(4H)-one] | 58%
2 | – | – | 100% | < 40% | – | Cc1ccc(Cl)c(Nc2ccccc2-c2nsc(N=C(N)N)n2)c1Cl [Example 3, 3-[2-[(2,6-dichloro-3-methylphenyl)amino]phenyl]-1,2,4-thiadiazol-5-yl-guanidine] | –
3 | 6.15 µM | 1230 nM | – | – | – | Cc1ccc(Cl)c(Nc2ccccc2-c2nsc(NC#N)n2)c1Cl [Example 4, 3-[2-[(2,6-Dichloro-3-methylphenyl)amino]phenyl]-1,2,4-thiadiazol-5-yl-cyanamide] | –
4 | – | – | – | < 40% | < 40% | Cc1ccc(S(=O)(=O)c2nc(-c3ccccc3Nc3c(Cl)ccc(C)c3Cl)ns2)cc1 [Example 2, 2,6-Dichloro-3-methyl-N-[2-[5-[(4-methylphenyl)-sulfonyl]-1,2,4-thiadiazol-3-yl]phenyl]benzenamine] | –
